{
  "source": "patent EP3789378A1",
  "about": "“PIPERIDINES OR PIPERIDONES SUBSTITUTED WITH UREA AND HETEROARYL” (Grünenthal GmbH, priority 2019, dated 2021)",
  "data": [
    {"target": "T1, h FPR2 (Homo sapiens, UniProt P25090)", "T1 construct": "expressed in transfected cells", "T1 sequence (P25090 1-351)": "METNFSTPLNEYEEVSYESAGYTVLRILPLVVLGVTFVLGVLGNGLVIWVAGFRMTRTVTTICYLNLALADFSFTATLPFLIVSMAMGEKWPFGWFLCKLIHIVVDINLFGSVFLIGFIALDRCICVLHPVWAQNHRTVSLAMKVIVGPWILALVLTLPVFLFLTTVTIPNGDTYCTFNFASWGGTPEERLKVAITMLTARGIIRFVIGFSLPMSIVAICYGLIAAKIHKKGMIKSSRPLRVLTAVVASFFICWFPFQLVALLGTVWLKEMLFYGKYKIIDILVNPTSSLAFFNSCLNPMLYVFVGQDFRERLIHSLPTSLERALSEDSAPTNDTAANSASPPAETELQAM", "experiment": "Agonistic activity in hFPR2-Aq-CHO cells (FLIPR Calcium 5 fluorescence assay)", "format": "cell-based", "conditions": "11 point half log dilution, final assay concentration from 10µM", "method_in_brief": "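hFPR2-Aq-CHO cells were loaded with Calcium 5 dye for 30 min at 37 °C and equilibrated 10 min at room temperature. Compound (11 points, 10 µM to 100 pM final) was added in HBSS/HEPES/probenecid buffer pH 7.4. Fluorescence rise over basal across 5 min, relative to no-compound wells, gave EC50.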", "units": {"EC50": "nM"}, "values": [
      {"molecule": "COc1ccc([C@@H]2CN(CC(F)F)CC[C@H]2NC(=O)Nc2ccc(C#N)cc2)nc1", "note": "(single isomer, unassigned) [Ex-174, trans-1-(4-Cyano-phenyl)-3-[1-(2,2-difluoro-ethyl)-3-(5-methoxy-pyridin-2-yl)-piperidin-4-yl]-urea]", "EC50": 1.4},
      {"molecule": "COc1ccc([C@@H]2CN(CC(C)(C)O)CC[C@H]2NC(=O)Nc2cc(C)ns2)nc1", "note": "(single isomer, unassigned) [Ex-177, trans-1-[1-(2-Hydroxy-2-methyl-propyl)-3-(5-methoxy-pyridin-2-yl)-piperidin-4-yl]-3-(3-methyl-isothiazol-5-yl)-urea]", "EC50": 1.4},
      {"molecule": "COc1ccc([C@@H]2CN(CC(C)(C)O)CC[C@H]2NC(=O)Nc2ccc(Cl)cc2)nc1", "note": "(single isomer, unassigned) [Ex-179, trans-1-(4-Chlorophenyl)-3-[1-(2-hydroxy-2-methyl-propyl)-3-(5-methoxy-pyridin-2-yl)-piperidin-4-yl]-urea]", "EC50": 0.7},
      {"molecule": "COc1ccc([C@@H]2CN(C(=O)C3CC(O)C3)CC[C@H]2NC(=O)Nc2cc(C)ns2)nc1", "note": "(single isomer, unassigned) [Ex-183, trans-1-[1'-(3-hydroxy-cyclobutanecarbonyl)-5-methoxy-1',2',3',4',5',6'-hexahydro-[2,3']bipyridinyl-4'-yl]-3-(3-methyl-isothiazol-5-yl)-urea]", "EC50": 89},
      {"molecule": "COc1ccc([C@@H]2CN(C(=O)C3CCN(C)CC3)CC[C@H]2NC(=O)Nc2ccc(Cl)cc2)nc1", "note": "(single isomer, unassigned) [Ex-187, trans-1-(4-chlorophenyl)-3-[3-(5-methoxypyridin-2-yl)-1-(1-methylpiperidine-4-carbonyl)piperidin-4-yl]urea]", "EC50": 1.4},
      {"molecule": "COc1ccc([C@@H]2CN(C(=O)C3CCN(C)CC3)CC[C@H]2NC(=O)Nc2ccc(Cl)cc2)nc1", "note": "(single isomer, unassigned) [Ex-188, trans-1-(4-chlorophenyl)-3-[3-(5-methoxypyridin-2-yl)-1-(1-methylpiperidine-4-carbonyl)piperidin-4-yl]urea]", "EC50": 29},
      {"molecule": "COc1ccc([C@@H]2CN(C(=O)CN(C)C)CC[C@H]2NC(=O)Nc2ccc(Cl)cc2)nc1", "note": "(single isomer, unassigned) [Ex-189, trans-1-(4-chlorophenyl)-3-[1-[2-(dimethylamino)acetyl]-3-(5-methoxypyridin-2-yl)piperidin-4-yl]urea]", "EC50": 1.7},
      {"molecule": "COCCCN1CC[C@@H](NC(=O)Nc2ccc(Cl)cc2)[C@H](c2ccc(OC)cn2)C1", "note": "(single isomer, unassigned) [Ex-191, trans-1-(4-chlorophenyl)-3-[1-(3-methoxypropyl)-3-(5-methoxypyridin-2-yl)piperidin-4-yl]urea]", "EC50": 0.7},
      {"molecule": "COCCCN1CC[C@@H](NC(=O)Nc2ccc(Cl)cc2)[C@H](c2ccc(OC)cn2)C1", "note": "(single isomer, unassigned) [Ex-192, trans-1-(4-chlorophenyl)-3-[1-(3-methoxypropyl)-3-(5-methoxypyridin-2-yl)piperidin-4-yl]urea]", "EC50": 58},
      {"molecule": "COc1ccc([C@@H]2CN(CC3CC(OC)C3)CC[C@H]2NC(=O)Nc2ccc(Cl)cc2)nc1", "note": "(single isomer, unassigned) [Ex-195, trans-1-(4-chloro-phenyl)-3-[5-methoxy-1'-(3-methoxy-cyclobutylmethyl)-1',2',3',4',5',6'-hexahydro-[2,3']bipyridinyl-4'-yl]-urea]", "EC50": 0.5},
      {"molecule": "COc1ccc([C@@H]2CN(CC3CC(OC)C3)CC[C@H]2NC(=O)Nc2ccc(Cl)cc2)nc1", "note": "(single isomer, unassigned) [Ex-202, trans-1-(4-chloro-phenyl)-3-[5-methoxy-1'-(3-methoxy-cyclobutylmethyl)-1',2',3',4',5',6'-hexahydro-[2,3']bipyridinyl-4'-yl]-urea]", "EC50": 1.4},
      {"molecule": "COc1ccc([C@@H]2CN(CC3CC(O)C3)CC[C@H]2NC(=O)Nc2ccc(Cl)cc2)nc1", "note": "(single isomer, unassigned) [Ex-203, trans-1-(4-chloro-phenyl)-3-[1'-(3-hydroxy-cyclobutylmethyl)-5-methoxy-1',2',3',4',5',6'-hexahydro-[2,3']bipyridinyl-4'-yl]-urea]", "EC50": 0.7},
      {"molecule": "COc1ccc([C@@H]2CN(CC3CC(O)C3)CC[C@H]2NC(=O)Nc2ccc(Cl)cc2)nc1", "note": "(single isomer, unassigned) [Ex-205, trans-1-(4-chloro-phenyl)-3-[1'-(3-hydroxy-cyclobutylmethyl)-5-methoxy-1',2',3',4',5',6'-hexahydro-[2,3']bipyridinyl-4'-yl]-urea]", "EC50": 4},
      {"molecule": "COc1ccc([C@H]2CN(CC3(C(N)=O)CC3)CC[C@@H]2NC(=O)Nc2ccc(Cl)cc2)nc1", "note": "[Ex-143, trans-1-[[4-[[(4-Chlorophenyl)-carbamoyl]amino]-3-(5-methoxy-pyridin-2-yl)-piperidin-1-yl]-methyl]-cyclopropane-1-carboxyfic acid amide]", "EC50": 0.12},
      {"molecule": "COc1ccc([C@H]2CN(CCO)CC[C@@H]2NC(=O)Nc2ccc(Cl)cc2)nc1", "note": "[Ex-206]", "EC50": 2},
      {"molecule": "COc1ccc([C@H]2CN(CC(F)F)CC[C@@H]2NC(=O)Nc2cc(C)ns2)nc1", "note": "[Ex-214]", "EC50": 0.8},
      {"molecule": "CNC(=O)CN1CC[C@H](NC(=O)Nc2ccc(Cl)cc2)[C@@H](c2ccc(OC)cn2)C1", "note": "[Ex-215]", "EC50": 0.3},
      {"molecule": "COc1ccc([C@H]2CN(CC(=O)N(C)C)CC[C@@H]2NC(=O)Nc2ccc(Cl)cc2)nc1", "note": "[Ex-216]", "EC50": 2},
      {"molecule": "COc1ccc([C@H]2CN(C(C)(C)C(N)=O)CC[C@@H]2NC(=O)Nc2ccc(Cl)cc2)nc1", "note": "[Ex-225]", "EC50": 8}
    ]}
  ]
}
